According to US20130131075A1, “NEW COMPOUNDS” (Boehringer Ingelheim International GmbH, priority 2009, published 2013):

Target: T1, cynomolgus BK1-receptor (Macaca fascicularis, UniProt Q3BCU0)
T1 construct: expressed in transfected cells; host or cells: CHO cells (homogenate)
T1 sequence (Q3BCU0 1-352): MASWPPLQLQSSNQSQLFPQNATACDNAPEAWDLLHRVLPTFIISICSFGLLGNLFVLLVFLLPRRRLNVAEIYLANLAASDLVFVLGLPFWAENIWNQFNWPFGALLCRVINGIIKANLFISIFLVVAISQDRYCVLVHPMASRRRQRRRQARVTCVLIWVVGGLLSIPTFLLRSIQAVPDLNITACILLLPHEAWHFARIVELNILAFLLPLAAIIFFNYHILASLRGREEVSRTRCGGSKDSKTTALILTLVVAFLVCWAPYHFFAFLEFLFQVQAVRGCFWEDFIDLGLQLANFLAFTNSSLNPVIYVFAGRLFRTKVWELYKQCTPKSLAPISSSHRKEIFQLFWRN
Assay: cynoBK1-receptor binding assay
Conditions: CHO cells expressing cynomolgus BK1-receptor, radioligand kallidine (DesArg10,Leu9); for inhibition at 10 µM: at 10 μgmol/L
Outline: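 Ki derived by non-linear fitting of concentration-binding curves. Test compound competed against 0.5 to 5.0 nM tritiated kallidine (DesArg10,Leu9) on cynomolgus BK1-CHO cell homogenate (50 to 250 μg protein/assay) for 60-180 minutes at ambient temperature, then filtered. 1.0 μM kallidine (DesArg10) set non-specific binding.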

Compound | Ki [nM] | inhibition at 10 µM [%]
O=C(NC1(C(=O)NCc2ccc(Nc3ccc(F)cc3C(F)(F)F)cn2)CC1)c1cnc(N2CCCCC2)nc1 [(248)] | 276 | 
CNc1cncc(C(=O)NC2(C(=O)NCc3ncc(Nc4c(F)cccc4C(F)(F)F)cc3F)CC2)c1 [(272)] | 35 | 
N#CCC(=O)NC1(C(=O)NCc2ccc(Nc3ccc(Cl)cc3C(F)(F)F)cn2)CC1 [(364)] | 77 | 
Nc1cncc(C(=O)N[C@@]2(C(=O)NCc3ncc(Nc4ccc(Cl)cc4C(F)(F)F)cc3Cl)CCOC2)c1 [(285)] | 27 | 
O=C(N[C@@]1(C(=O)NCc2ccc(Nc3ccccc3C(F)(F)F)cc2)CCOC1)c1ccnnc1 [(64)] | 98 | 109
O=C(NC1(C(=O)NCc2ccc(Nc3ccccc3C(F)(F)F)cn2)CC1)c1cncnc1 [(39)] | 5.5 | 110
Cc1cc(Nc2ccc(F)cc2C(F)(F)F)cnc1CNC(=O)C1(NC(=O)c2cncnc2)CC1 [(306)] | 2 | 
CC(C)Oc1ccc(Nc2ccc(CNC(=O)C3(NC(=O)c4cncnc4)CC3)cc2)c(C(F)(F)F)c1 [(119)] | 375 | 82
O=C(N[C@@]1(C(=O)NCc2ccc(Nc3c(F)cccc3C(F)(F)F)cn2)CCOC1)c1cncnc1 [(46)] | 290 | 88
O=C(NC1(C(=O)NCc2ccc(Nc3ccc(F)cc3C(F)(F)F)cn2)CC1)c1cnc2[nH]cnc2c1 [(143)] | 12 | 106
O=C(NC1(C(=O)NCc2ccc(Nc3ccccc3C(F)(F)F)cn2)CCC(O)C1)c1cncnc1 (stereo not shown) [(192)] |  | 95
COc1ncc(C(=O)NC2(C(=O)NCc3ccc(Nc4ccc(Br)cc4C(F)(F)F)cn3)CC2)cn1 [(138)] | 6.7 | 107
O=C(N[C@@]1(C(=O)NCc2ccc(Nc3ccc(Br)cc3C(F)(F)F)cn2)CCOC1)c1cncnc1 [(223)] | 75 | 
O=C(N[C@@]1(C(=O)NCc2ccc(Nc3ccccc3C(F)(F)F)cc2)CCOC1)c1ccoc1 [(93)] |  | 84
CC(NC(=O)C1(NC(=O)c2cncnc2)CC1)c1ncc(Nc2c(F)cccc2C(F)(F)F)cc1F (stereo not shown) [(121)] | 2 | 113
CCNc1ccc(C(=O)NC2(C(=O)NCc3ccc(Nc4ccc(Cl)cc4C(F)(F)F)cn3)CC2)cn1 [(329)] | 24 | 
O=C(Cc1ccccn1)N[C@@]1(C(=O)NCc2ccc(Nc3ccccc3C(F)(F)F)cc2)CCOC1 [(59)] |  | 22
COc1cncc(C(=O)NC2(C(=O)NCc3ccc(Nc4ccc(Br)cc4C(F)(F)F)cn3)CC2)c1 [(316)] | 57 | 
Nc1ncc(C(=O)NC2(C(=O)NCc3ccc(Nc4ccc(Cl)cc4C(F)(F)F)cn3)CC2)cc1Br [(378)] | 4.6 | 

The next lines start with the values.

Ki [nM] | inhibition at 10 µM [%] | Compound
5.6 |  | Cc1ncc(C(=O)NC2(C(=O)NCc3ccc(Nc4ccc(F)cc4C(F)(F)F)cn3)CC2)cn1 [(232)]
65 |  | Nc1ccc(C(=O)N[C@@]2(C(=O)NCc3ncc(Nc4ccc(Cl)cc4C(F)(F)F)cc3F)CCOC2)cn1 [(293)]
4 |  | Cc1ncc(C(=O)N[C@@]2(C(=O)NCc3ccc(Nc4ccc(F)cc4C(F)(F)F)cc3F)CCOC2)cn1 [(274)]
30 |  | Cc1ncc(C(=O)N[C@@]2(C(=O)NCc3ccc(Nc4ccc(Cl)cc4C(F)(F)F)cc3)CCOC2)cn1 [(317)]
33 |  | CCNc1ncc(C(=O)N[C@@]2(C(=O)NCc3ccc(Nc4ccc(F)cc4C(F)(F)F)cc3)CCOC2)cn1 [(328)]
33 |  | Cc1ncc(C(=O)N[C@@]2(C(=O)NCc3ncc(Nc4ccccc4C(F)(F)F)cc3C)CCOC2)cn1 [(366)]
10 |  | COc1ncc(C(=O)NC2(C(=O)NCc3ccc(Nc4ccc(F)cc4C(F)(F)F)cn3)CC2)cn1 [(233)]
46 |  | Nc1cncc(C(=O)N[C@@]2(C(=O)NCc3ccc(Nc4c(F)cccc4C(F)(F)F)cc3F)CCOC2)c1 [(290)]
9.7 | 106 | O=C(N[C@@]1(C(=O)NCc2ncc(Nc3ccc(F)cc3C(F)(F)F)cc2F)CCOC1)c1cncnc1 [(153)]
17 |  | Cc1ncc(C(=O)N[C@@]2(C(=O)NCc3ncc(Nc4ccc(Cl)cc4C(F)(F)F)cc3C)CCOC2)cn1 [(345)]
